In patent US20100227921A1, “AMINO ACID AND PEPTIDE CARBAMATE PRODRUGS OF […] USES THEREOF” (SHIRE LLC, priority 2009, published 2010):
Where “and” joins values, the source holds several entries; their conditions need not be identical. Equal values may be shown once. Read-outs that look alike come from different tables or passages of the source. Marks after values point to notes of the source that are not given here.

Experiments:
[1] = Comparative bioavailability after oral administration to rats (plasma LC-MS-MS); format: in vivo
Protocol: Test substances, i.e., tapentadol or tapentadol valine carbamate were administered by oral gavage to groups of male Sprague Dawley rats.
Blood samples were taken at various times after administration and submitted to analysis for the parent drug and pro-drug using a validated LC-MS-MS assay. Pharmacokinetic parameters derived from the plasma analytical data were determined using Win Nonlin.

[2] = Comparative bioavailability after oral or intravenous administration to monkeys (plasma LC-MS-MS); format: in vivo, cynomolgus monkey; settings: cynomolgus monkey, plasma, iv, male monkey, i.v. tapentadol valine carbamate 0.5 mg tapentadol free base equiv/kg, individual animals 1-5
Protocol: Test substances i.e., tapentadol and tapentadol valine carbamate were administered (either intravenously or orally) to a group of five male cynomolgus monkeys in a three way crossover design. The oral doses were given at 1 mg tapentadol base equivalents/kg while the intravenous dose was 0.5 mg/kg
Blood samples were taken at various times after administration and submitted to analysis for the parent drug and tapentadol valine carbamate using a validated LC-MS-MS assay. Pharmacokinetic parameters derived from the plasma analytical data were determined using Win Nonlin.

[3] = male rat, oral tapentadol valine carbamate 10 mg tapentadol free base equiv/kg, individual animals 6-10

## CC[C@H](c1cccc(OC(=O)N[C@H](C(=O)O)C(C)C)c1)[C@H](C)CN(C)C (racemic) [Tapentadol valine carbamate, 2-[3-(3-Dimethylamino-1-ethyl-2-methyl-propyl)-phenoxycarbonylamino]-3-methyl-butyric acid]
[1]; male rat, oral tapentadol valine carbamate 10 mg tapentadol free base equiv/kg, 6 h, individual animals 6-10
  Plasma concentration of tapentadol valine carbamate: 19.9 ng/mL and 38.9 ng/mL and 22.7 ng/mL and 31.3 ng/mL
[1]; male rat, oral tapentadol valine carbamate 10 mg tapentadol free base equiv/kg, 8 h, individual animals 6-10
  Plasma concentration of tapentadol valine carbamate: 32.7 ng/mL and 14.6 ng/mL and 26.5 ng/mL and 21.3 ng/mL and 25.4 ng/mL
[1]; male rat, oral tapentadol valine carbamate 10 mg tapentadol free base equiv/kg, 12 h, individual animals 6-10
  Plasma concentration of tapentadol valine carbamate: 9.49 ng/mL and 27.0 ng/mL and 11.4 ng/mL and 5.81 ng/mL and 14.5 ng/mL
[1]; male rat, oral tapentadol valine carbamate 10 mg tapentadol free base equiv/kg, 24 h, individual animals 6-10
  Plasma concentration of tapentadol valine carbamate: 2.00 ng/mL and 0.915 ng/mL and 0.801 ng/mL and 0.656 ng/mL and 0.548 ng/mL
[1]; [3]
  AUCt of tapentadol valine carbamate: 599 ng·h/mL and 615 ng·h/mL and 413 ng·h/mL and 650 ng·h/mL
  Cmax of tapentadol valine carbamate: 79.5 ng/mL and 106 ng/mL and 83.1 ng/mL and 115 ng/mL
  T>50%Cmax of tapentadol valine carbamate: 2.5 h (2×) and 3.5 h (2×) and 1.5 h
  Tmax of tapentadol valine carbamate: 2 h
  t½ of tapentadol valine carbamate: 3.83 h and 3.16 h and 3.60 h and 3.06 h
[1]; male rat, oral tapentadol valine carbamate 10 mg tapentadol free base equiv/kg, median
  T>50%Cmax of tapentadol valine carbamate: 2.5^a h
[1]; male rat, oral, 10 mg tapentadol free base equiv/kg
  Peak plasma levels of tapentadol compared with those after administration of the parent drug: somewhat lower
[1]; male, Sprague Dawley, rat, plasma, po, 10 mg tapentadol free base equiv/kg, oral tapentadol valine carbamate 10 mg tapentadol free base equiv/kg, 0.5 h, mean, read-out: Plasma concentration of tapentadol valine carbamate
  concentration at 0.5 h: 83.8 ng/mL
[1]; male, Sprague Dawley, rat, plasma, po, 10 mg tapentadol free base equiv/kg, oral tapentadol valine carbamate 10 mg tapentadol free base equiv/kg, 1 h, mean, read-out: Plasma concentration of tapentadol valine carbamate
  concentration at 1 h: 86.6 ng/mL
[1]; male, Sprague Dawley, rat, plasma, po, 10 mg tapentadol free base equiv/kg, oral tapentadol valine carbamate 10 mg tapentadol free base equiv/kg, 2 h, mean, read-out: Plasma concentration of tapentadol valine carbamate
  concentration at 2 h: 82.4 ng/mL
[1]; male, Sprague Dawley, rat, plasma, po, 10 mg tapentadol free base equiv/kg, oral tapentadol valine carbamate 10 mg tapentadol free base equiv/kg, 3 h, mean, read-out: Plasma concentration of tapentadol valine carbamate
  concentration at 3 h: 68.8 ng/mL
[1]; male, Sprague Dawley, rat, plasma, po, 10 mg tapentadol free base equiv/kg, oral tapentadol valine carbamate 10 mg tapentadol free base equiv/kg, 4 h, mean, read-out: Plasma concentration of tapentadol valine carbamate
  concentration at 4 h: 43.1 ng/mL
[1]; male, Sprague Dawley, rat, plasma, po, 10 mg tapentadol free base equiv/kg, oral tapentadol valine carbamate 10 mg tapentadol free base equiv/kg, 6 h, mean, read-out: Plasma concentration of tapentadol valine carbamate
  concentration at 6 h: 28.7 ng/mL
[1]; male, Sprague Dawley, rat, plasma, po, 10 mg tapentadol free base equiv/kg, oral tapentadol valine carbamate 10 mg tapentadol free base equiv/kg, 8 h, mean, read-out: Plasma concentration of tapentadol valine carbamate
  concentration at 8 h: 24.1 ng/mL
[1]; male, Sprague Dawley, rat, plasma, po, 10 mg tapentadol free base equiv/kg, oral tapentadol valine carbamate 10 mg tapentadol free base equiv/kg, 12 h, mean, read-out: Plasma concentration of tapentadol valine carbamate
  concentration at 12 h: 13.6 ng/mL
[1]; male, Sprague Dawley, rat, plasma, po, 10 mg tapentadol free base equiv/kg, oral tapentadol valine carbamate 10 mg tapentadol free base equiv/kg, 24 h, mean
  concentration at 24 h: 0.984 ng/mL
[1]; male, Sprague Dawley, rat, plasma, po, 10 mg tapentadol free base equiv/kg, oral tapentadol valine carbamate 10 mg tapentadol free base equiv/kg, calculated as ln2/mean k, read-out: t½ of tapentadol valine carbamate (converted)
  half-life: 212 min
[1]; male, Sprague Dawley, rat, plasma, po, 10 mg tapentadol free base equiv/kg, oral tapentadol valine carbamate 10 mg tapentadol free base equiv/kg, individual animals 6-10, read-out: AUCt of tapentadol valine carbamate
  AUC(0-t): 560 ng·h/mL
[1]; male, Sprague Dawley, rat, plasma, po, 10 mg tapentadol free base equiv/kg, oral tapentadol valine carbamate 10 mg tapentadol free base equiv/kg, individual animals 6-10, read-out: Cmax of tapentadol valine carbamate
  Cmax: 85.8 ng/mL
[1]; male, Sprague Dawley, rat, plasma, po, 10 mg tapentadol free base equiv/kg, oral tapentadol valine carbamate 10 mg tapentadol free base equiv/kg, individual animals 6-10, read-out: t½ of tapentadol valine carbamate (converted)
  half-life: 245 min
[1]; male, Sprague Dawley, rat, plasma, po, 10 mg tapentadol free base equiv/kg, oral tapentadol valine carbamate 10 mg tapentadol free base equiv/kg, mean, read-out: AUCt of tapentadol valine carbamate
  AUC(0-t): 567 ng·h/mL
[1]; male, Sprague Dawley, rat, plasma, po, 10 mg tapentadol free base equiv/kg, oral tapentadol valine carbamate 10 mg tapentadol free base equiv/kg, mean, read-out: Cmax of tapentadol valine carbamate
  Cmax: 93.9 ng/mL
[1]; male, Sprague Dawley, rat, plasma, po, 10 mg tapentadol free base equiv/kg, oral tapentadol valine carbamate 10 mg tapentadol free base equiv/kg, median, read-out: Tmax of tapentadol valine carbamate
  Tmax: 1 h
[2]; 0.083 h
  concentration at 0.083 h: 790 ng/mL
[2]; 0.25 h
  concentration at 0.25 h: 783 ng/mL
[2]; 1 h
  concentration at 1 h: 222 ng/mL
[2]; 2 h
  concentration at 2 h: 92.3 ng/mL
[2]; 4 h
  concentration at 4 h: 11.8 ng/mL
